Where “and” joins values, the source holds several entries; their conditions need not be identical. Identical values can stand only once. Entries after “also recorded” stand apart in the source; their conditions may differ. Values belong to the compound of their own block, whether it stands above or below them.
What was measured:
[1] = tested on: cellular efflux pumps (P-gp); set-up: method as in PMID 15847994, PMID 20513441; settings: cited from earlier work
[2] = tested on: CEM (parental) T-lymphoblastoid cells; test: Intracellular accumulation (substrate study) in CEM parental cells; assay type: in vitro ADME; settings: 10 μg/ml drug, 30 min, 37 °C
Experimental: The parental cell line was CEM (T-lymphoblastoid cell line) was used as the parental cell line. CEMVBL cells that have increased expression of P-gp were selected under vinblastine. The selection of drug resistant cells was carried out by using increasing concentrations of vinblastine up to 100 ng/mL. CEM and CEMVBL Cells were cultured in 175 cm^2 flasks containing DMEM supplemented with 15 % FBS at 37 °C in a humidified 5 % CO2 gassed incubator, conditions which led to doubling after approximately every 24 h.
The cell samples were centrifuged (2000 × g for 5 min at 4 °C) and the supernatant fraction discarded. […] The cells were then incubated at 37 °C for 30 min in a shaking water bath. The resulting cell suspensions were then centrifuged (2000 × g for 5 min at 4 °C). 100 μl samples of the supernatant fraction were then removed, and the aliquots used to determine the extracellular (EXT) concentration. The excess supernatant fraction was then discarded and the resulting cell pellet washed three times in 10 ml HBSS and centrifuged (2000 × g for 5 min). […] The samples were then assayed by HPLC, and the data expressed as cellular accumulation ratio (CAR), the ratio of the intracellular to the extracellular accumulation calculated by the formula, CAR = (INT/EXT) × 10 [intracellular concentrations were calculated using the volume of a single CEM and CEMVBL cell to be 1 picolitre (pl)] […]

[3] = tested on: CEM (parental) T-lymphoblastoid cells; test: Effect of PZQ and tariquidar on intracellular accumulation of SQV in CEM cells (inhibition study); assay type: cell-based
Experimental: (§1) The cell samples were centrifuged (2000 × g for 5 min at 4 °C) and the supernatant fraction discarded. […] The cells were then incubated at 37 °C for 30 min in a shaking water bath. The resulting cell suspensions were then centrifuged (2000 × g for 5 min at 4 °C). 100 μl samples of the supernatant fraction were then removed, and the aliquots used to determine the extracellular (EXT) concentration. The excess supernatant fraction was then discarded and the resulting cell pellet washed three times in 10 ml HBSS and centrifuged (2000 × g for 5 min). The resulting pellets were solubilized by reconstituting in 100 μl of distilled water and used to determine intracellular (INT) concentrations as described in a method previously validated in our laboratory. The experiment was carried out in quadruplicate. The samples were then assayed by HPLC, and the data expressed as cellular accumulation ratio (CAR), the ratio of the intracellular to the extracellular accumulation calculated by the formula, CAR = (INT/EXT) × 10 [intracellular concentrations were calculated using the volume of a single CEM and CEMVBL cell to be 1 picolitre (pl)] [15, 30].

P-gp = tested on: P-gp; set-up: method as in PMID 16846720; settings: Caco-2 cell lines; cited from earlier work
[4] = tested on: CEMVBL cells which overexpress P-gp; test: Intracellular accumulation (substrate study) in CEMVBL cells; assay type: in vitro ADME
Experimental: The parental cell line was CEM (T-lymphoblastoid cell line) was used as the parental cell line. CEMVBL cells that have increased expression of P-gp were selected under vinblastine. The selection of drug resistant cells was carried out by using increasing concentrations of vinblastine up to 100 ng/mL.
as §1

SMDR2, a P-gp orthologue = tested on: SMDR2, a P-gp orthologue; set-up: method as in PMID 19726755; settings: cited from earlier work
P-gp (CEMVBL cells) = molecular target: T1, P-gp (CEMVBL cells) (Homo sapiens, UniProt P08183); test: Effect of PZQ and tariquidar on intracellular accumulation of SQV in CEMVBL cells (inhibition study); assay type: cell-based
T1 construct: CEMVBL cells that have increased expression of P-gp were selected under vinblastine; endogenous in cells; host or cells: CEMVBL (vinblastine-selected CEM T-lymphoblastoid cells)
Experimental: as §1

[5] = Freeze-thaw stability of QC samples in DMEM (HPLC); assay type: physicochemical; settings: for Stability, Mean: freeze-thawed versus freshly prepared samples, peak areas; for Effect of freeze thawing on concentration in DMEM: freeze-thawed versus fresh DMEM samples
Text: The separation from endogenous compounds was investigated by analyzing six different samples of DMEM. Short and long term stability was investigated by comparing the peak areas of six freshly prepared QC assay samples to those of the freeze-thawed samples, and it was expressed as a percentage.

T1 sequence (P08183 whole entry): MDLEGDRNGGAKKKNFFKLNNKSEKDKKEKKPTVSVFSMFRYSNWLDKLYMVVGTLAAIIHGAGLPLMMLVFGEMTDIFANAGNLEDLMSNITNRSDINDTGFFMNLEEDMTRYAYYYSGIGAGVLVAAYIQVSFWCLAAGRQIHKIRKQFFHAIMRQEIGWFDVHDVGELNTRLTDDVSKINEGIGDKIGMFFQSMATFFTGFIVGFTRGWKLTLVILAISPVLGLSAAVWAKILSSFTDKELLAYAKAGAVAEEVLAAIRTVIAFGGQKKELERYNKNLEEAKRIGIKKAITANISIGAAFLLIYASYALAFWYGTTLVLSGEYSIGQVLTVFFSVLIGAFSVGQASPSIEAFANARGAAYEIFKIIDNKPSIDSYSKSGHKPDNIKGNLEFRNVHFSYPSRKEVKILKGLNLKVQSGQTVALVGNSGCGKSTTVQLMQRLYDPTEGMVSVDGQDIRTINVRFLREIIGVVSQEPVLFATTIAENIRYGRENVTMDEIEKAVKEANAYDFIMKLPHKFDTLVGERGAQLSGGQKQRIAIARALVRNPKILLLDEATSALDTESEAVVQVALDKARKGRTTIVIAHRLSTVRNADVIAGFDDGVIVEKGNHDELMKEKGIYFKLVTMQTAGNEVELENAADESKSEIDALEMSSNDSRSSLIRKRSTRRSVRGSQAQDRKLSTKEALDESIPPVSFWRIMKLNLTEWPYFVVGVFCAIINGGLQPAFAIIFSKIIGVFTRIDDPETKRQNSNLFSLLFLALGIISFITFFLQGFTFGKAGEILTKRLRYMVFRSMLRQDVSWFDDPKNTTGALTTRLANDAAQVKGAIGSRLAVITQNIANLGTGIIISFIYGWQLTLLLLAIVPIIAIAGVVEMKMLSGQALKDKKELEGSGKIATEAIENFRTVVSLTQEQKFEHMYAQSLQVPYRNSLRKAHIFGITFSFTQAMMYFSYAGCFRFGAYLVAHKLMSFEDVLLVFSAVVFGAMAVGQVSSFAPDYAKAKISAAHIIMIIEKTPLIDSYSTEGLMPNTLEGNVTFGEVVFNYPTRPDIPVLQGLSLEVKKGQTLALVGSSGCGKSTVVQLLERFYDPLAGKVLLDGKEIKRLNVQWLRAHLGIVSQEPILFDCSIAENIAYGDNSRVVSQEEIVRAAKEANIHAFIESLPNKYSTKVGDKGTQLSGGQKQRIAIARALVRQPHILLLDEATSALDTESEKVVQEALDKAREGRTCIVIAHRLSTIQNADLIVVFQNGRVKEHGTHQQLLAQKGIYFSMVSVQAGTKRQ

Cellular accumulation ratio (CAR), individual sample ([2]; CAR = (INT/EXT) × 10, samples 1-4): 0.03 and 0.05 and 0.04
Cellular accumulation ratio (CAR), mean ([2]; mean (± SD), n = 4): 0.04 ± 0.009 and 0.04
Cellular accumulation ratio (CAR), mean ([4]; CEMVBL cells, 10 μg/ml drug, 30 min, 37 °C, mean (± SD), n = 4): 0.05 ± 0.005 and 0.05
Cellular accumulation ratio (CAR), individual sample ([4]; CEMVBL cells, 10 μg/ml drug, 30 min, 37 °C, samples 1-4): 0.06 and 0.05
Stability, Mean ([5]; HQC 19.2 μM in DMEM): 109 (±3) %
Stability, Mean ([5]; LQC 6.4 μM in DMEM): 105 (±4) %
Stability, Mean ([5]; MQC 12.8 μM in DMEM): 113 (±6) %
Structure (SMILES): O=C(C1CCCCC1)N1CC(=O)N2CCc3ccccc3C2C1 (centres unmarked) [PZQ, Praziquantel]
Interaction with cellular efflux pumps / P-gp substrate status [1]: did not show potential for interacting with cellular efflux pumps; also recorded: not a substrate
Permeability [1]: highly permeable substance
CAR of SQV in presence of PZQ, mean ([3]; 10 μg/ml SQV + 10 μg/ml PZQ, mean (± SD), n = 4): 0.54 ± 0.061 and 0.54
CAR of SQV in presence of PZQ, individual sample ([3]; 10 μg/ml SQV + 10 μg/ml PZQ, samples 1-4): 0.45 and 0.57 and 0.59 and 0.53
P-gp inhibitor / substrate status (P-gp): an inhibitor of P-gp without being a substrate
P-gp substrate specificity (conclusion) ([4]; comparison of accumulation in CEM and CEMVBL cells): not a substrate of P-gp; also recorded: neither a substrate nor an inhibitor of P-gp
Inhibition of transport by SMDR2 (SMDR2, a P-gp orthologue): inhibit the transport by SMDR2
P-gp inhibition (conclusion) (P-gp (CEMVBL cells); effect on SQV accumulation in CEMVBL cells compared to tariquidar): not an inhibitor of P-gp; also recorded: neither a substrate nor an inhibitor of P-gp
Effect of freeze thawing on concentration in DMEM [5]: did not appear to significantly affect the concentrations

CAR of SQV alone, mean (inhibition study) ([3]; 10 μg/ml SQV alone, mean (± SD), n = 4): 0.52 ± 0.068 and 0.52
CAR of SQV alone, individual sample (inhibition study) ([3]; 10 μg/ml SQV alone, samples 1-4): 0.57 and 0.50 and 0.59 and 0.44
CAR of SQV alone, mean (inhibition study) (P-gp (CEMVBL cells); CEMVBL cells, 10 μg/ml SQV alone, mean (± SD), n = 4): 0.09 ± 0.015 and 0.09
CAR of SQV alone, individual sample (inhibition study) (P-gp (CEMVBL cells); CEMVBL cells, 10 μg/ml SQV alone, samples 1-4): 0.07 and 0.10 and 0.11
Structure (SMILES): CC(C)(C)NC(=O)[C@@H]1C[C@@H]2CCCC[C@@H]2CN1C[C@@H](O)[C@H](Cc1ccccc1)NC(=O)[C@H](CC(N)=O)NC(=O)c1ccc2ccccc2n1 [SQV, Saquinavir]
Effect of freeze thawing on concentration in DMEM [5]: did not appear to significantly affect the concentrations

Structure (SMILES): COc1cc2c(cc1OC)CN(CCc1ccc(NC(=O)c3cc(OC)c(OC)cc3NC(=O)c3cnc4ccccc4c3)cc1)CC2 [tariquidar]
CAR of SQV in presence of tariquidar (XR), mean ([3]; 10 μg/ml SQV + 1 μM tariquidar, mean (± SD), n = 4): 0.61 ± 0.102 and 0.61
CAR of SQV in presence of tariquidar (XR), individual sample ([3]; 10 μg/ml SQV + 1 μM tariquidar, samples 1-4, listed as XR): 0.55 and 0.51 and 0.73 and 0.66

Reference: PMC4983413, “Intracellular accumulation of Praziquantel in T lymphoblastoid cell lines, CEM (parental) and CEMVBL(P-gp-overexpressing)” (BMC Pharmacology & Toxicology, 2016)
